# Data from ChEMBL document CHEMBL6153088, “Discovery of 1,4-Disubstituted Cyclohexene Analogues as Selective GPR119 Agonists for the Treatment of Type 2 Diabetes” (J Med Chem, 2025).
# The source made the active and inactive calls. No cut-off for these calls is given here.
# What was measured:
# [1] = Microsomal stability in dog liver microsome assessed as compound remaining measured upto 45 min in presence of NADPH by LC-MS analysis; type: ADME, Canis lupus familiaris; settings: liver microsomes, read-out: Stability
# [2] = biological target: Cytochrome P450 2C19 (Homo sapiens, UniProt P33261); assay: Inhibition of CYP2C19 in human liver microsomes using mephenytoin as substrate incubated for 45 min in presence of NADPH by LC-MS/MS analysis; type: ADME, Microsome
# [3] = Half-life in Cynomolgus monkey at 30 mg/kg, po measured upto 48 hrs by LC-MS/MS analysis; type: ADME, organism-based, Macaca fascicularis; settings: in vivo
# [4] = system: Rattus norvegicus; assay: Antidiabetic activity high-fat diet induced obese female Sprague-Dawley rat model assessed as reduction in fasting glucose levels at 3 to 30 mg/kg measured after 37 days by oral glucose tolerance test; type: functional, organism-based; settings: dose 3-30 mg/kg, time 37.0 day
# [5] = biological target: Cytochrome P450 2C9 (Homo sapiens, UniProt P11712); assay: Inhibition of CYP2C9 in human liver microsomes using diclofenac as substrate incubated for 10 min in presence of NADPH by LC-MS/MS analysis; type: ADME, Microsome
# [6] = system: INS1; assay: Induction of insulin secretion in glucose treated INS1 cells at 0.1 to 1 uM measured after 1 hr by ELISA method; type: functional, cell-based; settings: Rattus norvegicus, dose 0.1-1 µM
# [7] = system: Rattus norvegicus; assay: Antidiabetic activity in high-fat diet induced obese female Sprague-Dawley rat model assessed as hypoglycemic effect at 3 to 30 mg/kg administered once daily for 5 weeks by oral glucose tolerance test; type: functional, organism-based; settings: dose 3-30 mg/kg
# [8] = biological target: Cytochrome P450 3A4 (Homo sapiens, UniProt P08684); assay: Inhibition of CYP3A4 in human liver microsomes using midazolam as substrate incubated for 5 min in presence of NADPH by LC-MS/MS analysis; type: ADME, Microsome
# [9] = Kinetic solubility of the compound in water; type: physicochemical; settings: read-out: Kinetic_solubility
# [10] = system: Rattus norvegicus; assay: Antidiabetic activity high-fat diet induced female Sprague-Dawley rat model assessed as reduction in body weight at 3 to 30 mg/kg measured after 28 days by oral glucose tolerance test; type: functional, organism-based; settings: dose 3-30 mg/kg, time 28.0 day
# [11] = Induction of GLP-1 secretion in human NCI-H716 cells assessed as fold change at 30 uM measured after 1 hr by ELISA method; type: functional
# [12] = Oral bioavailability in Sprague-Dawley rat at 30 mg/kg measured upto 48 hrs by LC-MS/MS analysis; type: ADME, organism-based; settings: in vivo
# [13] = biological target: T1, Cytochrome P450 1A2 (Homo sapiens, UniProt P05177); assay: Inhibition of CYP1A2 in human liver microsomes using phenacetin as substrate incubated for 10 min in presence of NADPH by LC-MS/MS analysis; type: ADME, Microsome
# T1 sequence (P05177 whole entry): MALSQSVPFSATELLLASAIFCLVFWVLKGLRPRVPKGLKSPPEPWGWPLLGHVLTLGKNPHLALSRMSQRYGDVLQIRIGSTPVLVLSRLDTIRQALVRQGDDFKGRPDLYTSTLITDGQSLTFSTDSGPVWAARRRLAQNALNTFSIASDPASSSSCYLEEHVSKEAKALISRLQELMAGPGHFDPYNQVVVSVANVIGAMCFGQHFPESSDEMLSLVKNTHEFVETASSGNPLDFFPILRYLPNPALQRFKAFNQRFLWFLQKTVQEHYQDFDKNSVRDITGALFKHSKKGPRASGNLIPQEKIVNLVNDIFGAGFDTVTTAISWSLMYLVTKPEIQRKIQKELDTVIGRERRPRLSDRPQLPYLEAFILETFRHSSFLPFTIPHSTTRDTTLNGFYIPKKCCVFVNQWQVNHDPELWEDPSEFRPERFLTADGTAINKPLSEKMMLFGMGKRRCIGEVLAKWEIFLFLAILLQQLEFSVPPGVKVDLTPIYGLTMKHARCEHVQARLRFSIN
# [14] = Oral bioavailability in Cynomolgus monkey at 30 mg/kg measured upto 48 hrs by LC-MS/MS analysis; type: ADME, organism-based, Macaca fascicularis; settings: in vivo
# [15] = Lipophilicity, logP of compound; type: physicochemical; settings: octanol/water
# [16] = biological target: Cytochrome P450 2D6 (Homo sapiens, UniProt P10635); assay: Inhibition of CYP2D6 in human liver microsomes using dextromethorphan as substrate incubated for 20 min in presence of NADPH by LC-MS/MS analysis; type: ADME, Microsome
# [17] = system: Mus musculus; assay: Anti-diabetic activity in male db/db mouse assessed as reduction in blood glucose level administered twice a day preincubated with compound for 30 min followed by glucose bolus addition and measured upto 120 min by oral glucose tolerance test; type: functional, organism-based; settings: dose 30-30 mg/kg, time <= 150.0 min
# [18] = biological target: Voltage-gated inwardly rectifying potassium channel KCNH2 (Homo sapiens, UniProt Q12809); assay: Inhibition of human ERG incubated for 150 min by fluorescence polarization based microplate reader analysis; type: toxicity
# [19] = system: Mus musculus; assay: Anti-diabetic activity in male FATZO mouse assessed as reduction in blood glucose level by measuring reduction in AUC […] at 30 mg/kg pre-administered with compound for 30 min followed by glucose bolus addition and measured upto 120 min by oral glucose tolerance test relative to control; type: functional; design: scale not given: the % may be the effect or the level left; settings: time <= 150 min, 2.5 h
# [20] = Microsomal stability in human liver microsome assessed as compound remaining measured upto 45 min in presence of NADPH by LC-MS analysis; type: ADME; settings: liver microsomes, read-out: Stability
# [21] = Half-life in Sprague-Dawley rat at 30 mg/kg, po measured upto 48 hrs by LC-MS/MS analysis; type: ADME, organism-based; settings: in vivo
# [22] = Induction of GLP-1 secretion in human NCI-H716 cells assessed as fold change at 10 uM measured after 1 hr by ELISA method; type: functional
# [23] = Half-life in Beagle dog at 10 mg/kg, po measured upto 48 hrs by LC-MS/MS analysis; type: ADME, organism-based, Canis lupus familiaris; settings: in vivo
# [24] = Dissociation constant, pKa of compound; type: physicochemical
# [25] = Microsomal stability in rat liver microsome assessed as compound remaining measured upto 45 min in presence of NADPH by LC-MS analysis; type: ADME; settings: liver microsomes, read-out: Stability
# [26] = biological target: T2, Glucose-dependent insulinotropic receptor (Homo sapiens, UniProt Q8TDV5); assay: Agonist activity at human GPR119 expressed in CHO cells assessed as cAMP level measured after 90 mins by HTRF based assay; type: functional, cell-based
# T2 sequence (Q8TDV5 whole entry): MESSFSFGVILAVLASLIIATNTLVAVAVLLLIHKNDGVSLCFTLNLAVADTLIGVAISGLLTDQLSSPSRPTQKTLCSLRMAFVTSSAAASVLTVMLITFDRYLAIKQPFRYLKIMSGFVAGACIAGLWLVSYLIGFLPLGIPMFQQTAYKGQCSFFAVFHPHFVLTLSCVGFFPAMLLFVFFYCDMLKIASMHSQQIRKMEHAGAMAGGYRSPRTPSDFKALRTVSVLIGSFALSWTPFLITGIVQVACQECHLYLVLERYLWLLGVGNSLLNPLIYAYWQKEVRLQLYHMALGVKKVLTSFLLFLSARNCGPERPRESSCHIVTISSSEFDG
# Sequence of Cytochrome P450 2C9 (P11712 whole entry): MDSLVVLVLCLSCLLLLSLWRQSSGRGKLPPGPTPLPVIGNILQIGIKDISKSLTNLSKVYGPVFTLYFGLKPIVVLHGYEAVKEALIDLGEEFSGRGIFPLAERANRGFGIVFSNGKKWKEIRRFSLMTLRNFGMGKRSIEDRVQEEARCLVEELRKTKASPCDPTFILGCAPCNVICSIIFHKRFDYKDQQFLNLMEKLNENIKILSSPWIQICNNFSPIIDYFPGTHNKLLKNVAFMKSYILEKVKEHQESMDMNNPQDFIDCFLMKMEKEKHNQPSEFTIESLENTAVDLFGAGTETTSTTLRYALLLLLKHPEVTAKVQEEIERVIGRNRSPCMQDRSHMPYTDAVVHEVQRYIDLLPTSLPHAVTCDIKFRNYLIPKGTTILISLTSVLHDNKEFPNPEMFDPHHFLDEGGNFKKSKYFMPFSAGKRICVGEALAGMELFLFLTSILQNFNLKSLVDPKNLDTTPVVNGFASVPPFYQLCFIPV
# Sequence of Cytochrome P450 2C19 (P33261 whole entry): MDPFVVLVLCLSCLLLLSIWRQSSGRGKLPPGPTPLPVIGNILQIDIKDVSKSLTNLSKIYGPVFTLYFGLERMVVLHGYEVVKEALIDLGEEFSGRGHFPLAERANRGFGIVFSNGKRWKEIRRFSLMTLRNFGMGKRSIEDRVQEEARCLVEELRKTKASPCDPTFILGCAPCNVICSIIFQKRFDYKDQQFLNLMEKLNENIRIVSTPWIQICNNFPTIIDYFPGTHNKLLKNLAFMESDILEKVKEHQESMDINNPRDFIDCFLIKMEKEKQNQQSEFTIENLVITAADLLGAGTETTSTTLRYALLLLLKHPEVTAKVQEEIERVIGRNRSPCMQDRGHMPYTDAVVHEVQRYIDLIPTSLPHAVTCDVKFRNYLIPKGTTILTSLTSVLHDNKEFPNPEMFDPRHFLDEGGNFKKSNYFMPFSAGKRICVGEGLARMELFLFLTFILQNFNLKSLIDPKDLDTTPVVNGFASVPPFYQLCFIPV
# Sequence of Cytochrome P450 2D6 (P10635 whole entry): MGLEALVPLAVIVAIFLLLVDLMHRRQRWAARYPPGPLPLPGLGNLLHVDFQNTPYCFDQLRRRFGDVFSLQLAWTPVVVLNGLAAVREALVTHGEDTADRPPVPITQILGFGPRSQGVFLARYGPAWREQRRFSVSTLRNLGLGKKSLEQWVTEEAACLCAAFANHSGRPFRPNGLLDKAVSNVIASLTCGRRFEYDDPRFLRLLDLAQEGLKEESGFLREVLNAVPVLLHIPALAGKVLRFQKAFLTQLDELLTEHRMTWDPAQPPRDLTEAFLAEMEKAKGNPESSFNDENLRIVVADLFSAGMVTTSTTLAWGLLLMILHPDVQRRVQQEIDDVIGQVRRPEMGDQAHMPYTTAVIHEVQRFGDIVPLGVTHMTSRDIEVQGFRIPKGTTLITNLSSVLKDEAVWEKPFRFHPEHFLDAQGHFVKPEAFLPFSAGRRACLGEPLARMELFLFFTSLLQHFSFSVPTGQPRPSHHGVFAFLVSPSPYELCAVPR
# Sequence of Voltage-gated inwardly rectifying potassium channel KCNH2 (Q12809 whole entry): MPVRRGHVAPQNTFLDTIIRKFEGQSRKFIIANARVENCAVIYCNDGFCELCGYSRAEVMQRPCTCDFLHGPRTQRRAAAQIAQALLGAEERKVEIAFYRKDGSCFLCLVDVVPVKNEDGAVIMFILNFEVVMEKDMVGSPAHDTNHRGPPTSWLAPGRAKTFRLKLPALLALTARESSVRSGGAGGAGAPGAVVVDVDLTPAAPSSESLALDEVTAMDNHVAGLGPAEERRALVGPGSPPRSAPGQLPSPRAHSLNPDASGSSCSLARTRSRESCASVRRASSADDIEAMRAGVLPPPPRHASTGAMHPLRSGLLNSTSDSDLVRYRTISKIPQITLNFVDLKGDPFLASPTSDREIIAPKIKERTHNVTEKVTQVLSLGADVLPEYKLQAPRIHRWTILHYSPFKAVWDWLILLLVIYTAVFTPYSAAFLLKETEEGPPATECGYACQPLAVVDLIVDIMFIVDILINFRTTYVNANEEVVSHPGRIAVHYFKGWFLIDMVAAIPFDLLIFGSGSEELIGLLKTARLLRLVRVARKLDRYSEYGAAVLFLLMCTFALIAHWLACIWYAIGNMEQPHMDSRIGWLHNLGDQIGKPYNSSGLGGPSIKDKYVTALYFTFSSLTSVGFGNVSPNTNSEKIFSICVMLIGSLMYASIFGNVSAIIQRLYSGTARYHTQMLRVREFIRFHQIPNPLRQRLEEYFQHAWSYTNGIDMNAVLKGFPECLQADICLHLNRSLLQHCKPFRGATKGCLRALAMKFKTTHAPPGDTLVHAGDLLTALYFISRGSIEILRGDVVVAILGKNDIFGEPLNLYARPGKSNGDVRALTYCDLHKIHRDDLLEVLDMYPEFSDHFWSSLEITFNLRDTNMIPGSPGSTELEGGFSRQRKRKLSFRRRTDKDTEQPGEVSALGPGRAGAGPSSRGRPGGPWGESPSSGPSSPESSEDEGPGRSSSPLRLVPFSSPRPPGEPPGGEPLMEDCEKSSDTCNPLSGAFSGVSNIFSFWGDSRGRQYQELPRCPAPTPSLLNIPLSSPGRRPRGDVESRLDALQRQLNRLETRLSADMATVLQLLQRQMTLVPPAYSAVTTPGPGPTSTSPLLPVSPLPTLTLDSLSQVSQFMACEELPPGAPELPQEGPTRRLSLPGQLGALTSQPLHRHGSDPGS
# Sequence of Cytochrome P450 3A4 (P08684 whole entry): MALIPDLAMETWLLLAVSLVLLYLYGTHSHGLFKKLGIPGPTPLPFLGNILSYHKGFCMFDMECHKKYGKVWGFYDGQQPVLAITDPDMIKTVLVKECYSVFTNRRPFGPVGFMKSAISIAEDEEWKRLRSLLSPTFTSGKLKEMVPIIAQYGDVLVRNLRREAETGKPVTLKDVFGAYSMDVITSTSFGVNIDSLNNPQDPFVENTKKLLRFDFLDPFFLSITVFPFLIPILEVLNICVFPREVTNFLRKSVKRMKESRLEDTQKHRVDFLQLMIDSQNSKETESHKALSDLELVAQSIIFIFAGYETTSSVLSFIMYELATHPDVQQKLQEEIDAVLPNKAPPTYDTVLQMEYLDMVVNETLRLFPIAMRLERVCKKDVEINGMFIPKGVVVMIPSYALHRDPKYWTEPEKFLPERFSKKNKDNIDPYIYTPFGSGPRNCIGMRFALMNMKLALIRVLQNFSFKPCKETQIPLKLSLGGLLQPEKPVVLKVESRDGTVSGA
smiles,measurement,setting,value
CCc1cnc(N2CCC(COc3ccc(C4=CC[C@H](C(=O)N5CCC[C@@H]5CO)CC4)cc3)CC2)nc1,remaining at 0.75 h,[1],62.4%
same,IC50,[2],> 10 µM
same,half-life,[3],702 min
same,Activity,[4],Active
same,IC50,[5],> 10 µM
same,Activity,[6],Active
same,Activity,[7],Active; Strong Glucose Tolerant Ability
same,IC50,[8],> 10 µM
same,solubility kinetic,[9],176 µM
same,Activity,[10],Active; Significant Reduction In Body Weight
same,fold change (FC),[11],1.8
same,bioavailability,[12],28.3%
same,IC50,[13],> 10 µM
same,bioavailability,[14],31.6%
same,logP,[15],3.45
same,IC50,[16],> 10 µM
same,Activity,[17],Dose-dependent-effect; Superior Compared To Sitagliptin
same,IC50,[18],> 100 µM
same,Activity,[19],22.9%
same,remaining at 0.75 h,[20],53.8%
same,half-life,[21],324 min
same,fold change (FC),[22],1.7
same,half-life,[23],1030 min
same,pKa,[24],2.49
same,remaining at 0.75 h,[25],48.3%
same,EC50,[26],3.8 nM
